According to patent US20220381657A1, “METHOD FOR PREPARING BIOLOGICAL MATERIAL HAVING EXCELLENT LIGHT-TRANSMITTING PROPERTY” (RIKEN, priority 2016, published 2022):
Where a name gives a salt, the structure may show the parent alone. Read-outs that look alike come from different tables or passages of the source.

Tests used:
[1] = for 400 nm: OD at 400 nm of the chemical
[2] = tested on: Serius
[3] = tested on: bovine coagulated blood; experiment: Decoloring screening: heme eluted from bovine coagulated blood (OD420-OD700); settings: decolorization; for 700 nm calibrated 420 nm Average: OD420 calibrated by OD700; for integrated value 500-700 nm Average: integrated absorbance 500-700 nm
Description: A high-throughput screening system for evaluating the decoloring ability of various compounds was constructed. The screening system involved adding an aqueous solution of each compound to bovine coagulated blood and then measuring the absorbance of heme collected in the supernatant.
Specifically, to bovine blood, an equal amount of 8% PFA solution was added, and reacted at 4° C. overnight. The mixed liquid was centrifuged at 1500×g for 5 minutes, and the supernatant containing PFA was discarded. Then, the same amount of PBS as the original volume of blood was added to prepare a coagulated blood sample. To 150 μL of 10 wt % aqueous solution of each compound, 50 μL of the coagulated blood sample was added, and reacted at 37° C. overnight. The reaction solution was centrifuged at 1500×g for 5 minutes, and then 100 μL of the supernatant was added to a plate so as to be subjected to absorbance measurement. A sample which is suspended in water instead of being dissolved in the water has a weak decoloring effect, but none the less has a high absorbance value. […]

## CCCCCCCCCCCC(=O)N(C)CC(=O)[O-].[Na+] [#1466, Sodium N- lauroylsarcosinate]
Table 1
  pH: 6.1
[1]; Table 1
  OD400: 0.05

## OCCCCCBr [#1367]
[2]; relative fluorescence
  Fluorescence quench Average: −0.01
[3]
  700 nm calibrated 420 nm Average: 1.48
  integrated value 500-700 nm Average: 0.06
[…]
  pH: 2.9
[1]
  400 nm: 0.055

## C1CCC2=NCCCN2CC1 [#0594, 1,8-Diazabicyclo [5.4.0]-7-undecene]
[2]
  Fluorescence quench Average: 0.54
[3]
  700 nm calibrated 420 nm Average: 3.13
  integrated value 500-700 nm Average: 1.94

## CCCCCCCCCCCCCCCC[N+](C)(C)C.[Cl-] [#1235, Hexadecyltrimethyl- ammonium chloride]
[2]
  Fluorescence quench Average: 1.06
[3]
  700 nm calibrated 420 nm Average: 2.85
  integrated value 500-700 nm Average: 2.71

## NCCCOCCCN [#0394, Bis(3-aminopropyl) ether]
[2]; relative fluorescence
  Fluorescence quench Average: 0.54
[3]
  700 nm calibrated 420 nm Average: 3.27
  integrated value 500-700 nm Average: 1.85
[…]
  pH: 13.2
[1]
  400 nm: 0.067

## O=C(O)[C@@H](O)c1ccccc1Cl [#0746, 2-Chloro-L-mandelic acid]
Table 4
  pH: 2.14

## O=CNCC(=O)O [#0942, N-Formylglycine]
Table 4
  pH: 2.67

## CC(CN)CCCN (centres unmarked) [#1267, 2-Methyl-1,5-diaminopentane]
[2]; relative fluorescence
  Fluorescence quench Average: 0.51
[3]
  700 nm calibrated 420 nm Average: 1.48
  integrated value 500-700 nm Average: 1.09
Table 1
  pH: 12.9
[…]
  pH: 12.9
[1]
  400 nm: 0.08
[1]; Table 1
  OD400: 0.08

## OCCN1CC1 [#1061]
[2]
  Fluorescence quench Average: 0.80
[3]
  700 nm calibrated 420 nm Average: 1.14
  integrated value 500-700 nm Average: 0.91

## N[C@@H](CS(=O)(=O)O)C(=O)O [#0745, L-cysteic acid]
Table 4
  pH: 2.11

## O=C(O)C(C(=O)O)C1CCCC1 [#0762, Cyclopentyl malonic acid]
Table 4
  pH: 2.74

## O=S(=O)(O)c1cccnc1 [#1165, Pyridine-3-sulfonic acid]
Table 4
  pH: 2.21

## NC[C@H](O)[C@@H](O)[C@H](O)[C@H](O)CO [#0956, D-Glucamine, reference compound]
Table 3
  pH: 12.3
[1]; Table 3
  OD400: 0.260

## [Cl-].c1ccc(C[P+](c2ccccc2)(c2ccccc2)c2ccccc2)cc1 [#0425, Benzyltriphenyl-phosphonium chloride]
[2]; relative fluorescence
  Fluorescence quench Average: 0.35
[3]
  700 nm calibrated 420 nm Average: 1.14
  integrated value 500-700 nm Average: 0.83

## Cl.NC1(C(=O)O)CCC1 [#0473, 1-Aminocyclobutanecarboxylic acid hydrochloride]
Table 4
  pH: 2.18

## O=C(O)CCO [#0155, 3-Hydroxypropionic acid]
Table 4
  pH: 3.66

## CC(C)(C)CC(C)(C)c1ccc(OCCOCC[N+](C)(C)Cc2ccccc2)cc1 [#0441, Benzethonium Chloride]
[2]
  Fluorescence quench Average: 1.08
[3]
  700 nm calibrated 420 nm Average: 3.40
  integrated value 500-700 nm Average: 2.80

## NCCCNCCNCCCN [#0277, N,N′-Bis(3-aminopropyl) ethylenediamine]
[2]; relative fluorescence
  Fluorescence quench Average: 0.71
[3]
  700 nm calibrated 420 nm Average: 1.20
  integrated value 500-700 nm Average: 0.83
[…]
  pH: 13.1
[1]
  400 nm: 0.053

## O=C(O)CCNCCNCCC(=O)O [#0936, Ethylenediamine-N,N′- dipropionic acid dihydrochloride]
Table 4
  pH: 2.22

## Cl.O=C(O)CCP(CCC(=O)O)CCC(=O)O [#0197, Tris(2-carboxyethyl) phosphine hydrochloride]
[2]
  Fluorescence quench Average: −0.05
[3]
  700 nm calibrated 420 nm Average: 4.28
  integrated value 500-700 nm Average: 3.89

## CN1CCN(Cc2ccc(C(=O)O)cc2)CC1 [#0916, 4-[(4-Methyl-1-piperazinyl)methyl]benzoic acid dihydrochloride]
Table 4
  pH: 2.80

## C[n+]1ccc(-c2cc[n+](C)cc2)cc1 [#0652, 1,1′-Dimethyl-4,4′-bipyridinium dichloride]
[2]
  Fluorescence quench Average: 0.42
[3]
  700 nm calibrated 420 nm Average: 2.01
  integrated value 500-700 nm Average: 2.01

## CC(=O)N[C@@H](CS)C(=O)O [#0346, N-Acetyl- L-cysteine]
Table 4
  pH: 2.86

## CCN(CC)CCN [#0779, N,N-Diethyl-ethylenediamine]
[2]; relative fluorescence
  Fluorescence quench Average: 0.70
[3]
  700 nm calibrated 420 nm Average: 1.39
  integrated value 500-700 nm Average: 0.81
[…]
  pH: 13.6
[1]
  400 nm: 0.051

## O=C(O)CCCCCl [#0062, 5-Chlorovaleric acid]
Table 4
  pH: 2.86

## NC(=O)c1cccnc1 [#0855, nicotinamide]
[2]; relative fluorescence
  Fluorescence quench Average: 0.75
[3]
  700 nm calibrated 420 nm Average: 2.63
  integrated value 500-700 nm Average: 2.45
[…]
  pH: 10.4
[1]
  400 nm: 0.052

## NCCCCO [#0006]
[2]; relative fluorescence
  Fluorescence quench Average: 0.64
[3]
  700 nm calibrated 420 nm Average: 1.22
  integrated value 500-700 nm Average: 0.82
[…]
  pH: 12.3
[1]
  400 nm: 0.06

## Dodecyldimethyl(3- sulfopropyl)ammonium [#0661]
[2]; relative fluorescence
  Fluorescence quench Average: 1.13
[3]
  700 nm calibrated 420 nm Average: 2.10
  integrated value 500-700 nm Average: 1.70
[1]
  400 nm: 0.051
[1]; Table 1
  OD400: 0.051

## C[C@H](CCC(=O)[O-])[C@H]1CC[C@H]2[C@@H]3CC[C@@H]4C[C@H](O)CC[C@]4(C)[C@H]3C[C@H](O)[C@]12C.[Na+] [#1507, Sodium deoxycholate]
[2]; relative fluorescence
  Fluorescence quench Average: 1.03
[3]
  700 nm calibrated 420 nm Average: 1.27
  integrated value 500-700 nm Average: 1.03
Table 1
  pH: 7.9
[…]
  pH: 7.9
[1]
  400 nm: 0.054
[1]; Table 1
  OD400: 0.054

## NCC1CCOCC1 [#0467, 4-Aminomethyl-tetrahydropyran]
[2]; relative fluorescence
  Fluorescence quench Average: 0.65
[3]
  700 nm calibrated 420 nm Average: 1.52
  integrated value 500-700 nm Average: 1.13
[…]
  pH: 12.9
[1]
  400 nm: 0.049

## O=C(O)/C=C/c1ccc(Cn2ccnc2)cc1 [#1108, Ozagrel hydrochloride hydrate]
Table 4
  pH: 4.92

## O=C(O)[C@H](O)[C@@H](O)[C@H](O[C@@H]1O[C@H](CO)[C@H](O)[C@H](O)[C@H]1O)[C@H](O)CO [#1010, Lactobionic acid]
Table 4
  pH: 2.63

## O=C(O)CC(O)C(=O)O (racemic) [#1300, DL-Malic acid]
Table 4
  pH: 2.34

## Cl.NOCc1ccccc1 [#0429, O-Benzylhydroxylamine hydrochloride]
Table 4
  pH: 4.10

## Cl.NC1CCSC1=O (racemic) [#1213, DL-Homocysteinethiolactone hydrochloride]
Table 4
  pH: 2.31

## CC[n+]1ccccc1Br [#1562, 2-Bromo-1-ethylpyridinium tetrafluoroborate]
Table 4
  pH: 3.92

## CN(CCCN)CCCN [#0380]
[2]; relative fluorescence
  Fluorescence quench Average: 0.62
[3]
  700 nm calibrated 420 nm Average: 2.62
  integrated value 500-700 nm Average: 1.58

## CCCCCCCCC(=O)[O-].[Na+] [#0865, Sodium nonanoate]
Table 1
  pH: 8.9
[1]; Table 1
  OD400: 0.051

## O=C1O[C@H](CO)[C@@H](O)[C@H](O)[C@H]1O [#0963, D-(+)-Glucono-1,5-lactone]
Table 4
  pH: 2.69

## OCCCCBr [#1366, 4-Bromo-1-butanol (contains tetrahydrofuran)]
Table 4
  pH: 2.31

## Cl.N=C(N)Nc1ccc(C(=O)O)cc1 [#1249, 4-Guanidino benzoic acid hydrochloride]
Table 4
  pH: 4.22

## O=C(O)CC(S)C(=O)O (centres unmarked) [#1302, Thiomalic acid]
Table 4
  pH: 2.68

## CCOC(=O)[C@H]1CC[C@H](O)CC1 [#0216, Ethyl trans-4-hydroxy-cyclohexanecarboxylate]
Table 4
  pH: 5.68

## C=CCC(=O)O [#0073, 3-Butenoic acid]
Table 4
  pH: 3.43

## CSCC[C@H](NC(C)=O)C(=O)O [#0350, N-Acetyl- L-methionine]
Table 4
  pH: 2.74

## F[N+]12CC[N+](CCl)(CC1)CC2 [#1608, N-Fluoro-N′-(chloromethyl) triethylenediamine bis (tetrafluoroborate)]
Table 4
  pH: 5.19

## O=C(O)CC(CC(=O)O)C(=O)O [#1094, 1,2,3-Propanetri-carboxylic acid]
Table 4
  pH: 2.69

## CN(C)CCC(=O)O.Cl [#0702, 3-(Dimethylamino) propionic acid hydrochloride]
Table 4
  pH: 2.17

## N#CCC(=O)O [#1569, Cyanoacetic acid]
Table 4
  pH: 2.61

## CSCCC(NC(C)=O)C(=O)O (racemic) [#0360, N-Acetyl- DL-methionine]
Table 4
  pH: 2.75

## O=C(O)CCCCBr [#0074, 5-Bromovaleric acid]
Table 4
  pH: 2.39

## OCCCCCl [#1365, 4-Chloro-1-butanol (contains tetrahydrofuran)]
Table 4
  pH: 3.08

## CCCCCCCCCCCCCC[N+](C)(C)Cc1ccccc1 [#0362]
[2]
  Fluorescence quench Average: 1.07

## CC(=O)N(CC(O)CO)c1c(I)c(C(=O)NCC(O)CO)c(I)c(C(=O)NCC(O)CO)c1I (centres unmarked) [Histodenz ™, reference compound]
Table 3
  pH: 7.3
[1]; Table 3
  OD400: 0.054

## CCN(CC)CCO [#1575, 2-Diethylamino-ethanol]
[2]
  Fluorescence quench Average: 0.61
[3]
  700 nm calibrated 420 nm Average: 2.41
  integrated value 500-700 nm Average: 1.21

## CCCCCCC(O)CO (centres unmarked) [#1109, 1,2-Octanediol]
Table 4
  pH: 6.00
